Literature values, collected in patent US5200396A, “Method of treating neurodegenerative disorders using epidermal growth factor” (Zambon Group S.p.A., priority 1990, dated 1993).

System: rats with lesion of the nigrostriatal pathway
Conditions: lesion of the nigrostriatal pathway model; Brain Research, 459, 398, (1988)

NGF: growth factor acting as trophic factor towards some neuronal types
efficacy in changing the rotational behaviour of the animal: did not show, in practice, any efficacy
